Laboratory results taken from patent US7723358B2, “Aroyl-O-piperidine derivatives for the treatment of diabetes-related problems” (Merck Patent GmbH, priority 2004, dated 2010).

Target: T1, microsomal triglyceride transfer protein (MTP) (Mesocricetus auratus, UniProt P55158)
T1 construct: The supernatant comprising the soluble MTP is dialysed against Tris/HCl 150 mM; from tissue; host or cells: golden hamster liver microsomes, deoxycholate-solubilised supernatant, dialysed
T1 sequence (P55158 19-895): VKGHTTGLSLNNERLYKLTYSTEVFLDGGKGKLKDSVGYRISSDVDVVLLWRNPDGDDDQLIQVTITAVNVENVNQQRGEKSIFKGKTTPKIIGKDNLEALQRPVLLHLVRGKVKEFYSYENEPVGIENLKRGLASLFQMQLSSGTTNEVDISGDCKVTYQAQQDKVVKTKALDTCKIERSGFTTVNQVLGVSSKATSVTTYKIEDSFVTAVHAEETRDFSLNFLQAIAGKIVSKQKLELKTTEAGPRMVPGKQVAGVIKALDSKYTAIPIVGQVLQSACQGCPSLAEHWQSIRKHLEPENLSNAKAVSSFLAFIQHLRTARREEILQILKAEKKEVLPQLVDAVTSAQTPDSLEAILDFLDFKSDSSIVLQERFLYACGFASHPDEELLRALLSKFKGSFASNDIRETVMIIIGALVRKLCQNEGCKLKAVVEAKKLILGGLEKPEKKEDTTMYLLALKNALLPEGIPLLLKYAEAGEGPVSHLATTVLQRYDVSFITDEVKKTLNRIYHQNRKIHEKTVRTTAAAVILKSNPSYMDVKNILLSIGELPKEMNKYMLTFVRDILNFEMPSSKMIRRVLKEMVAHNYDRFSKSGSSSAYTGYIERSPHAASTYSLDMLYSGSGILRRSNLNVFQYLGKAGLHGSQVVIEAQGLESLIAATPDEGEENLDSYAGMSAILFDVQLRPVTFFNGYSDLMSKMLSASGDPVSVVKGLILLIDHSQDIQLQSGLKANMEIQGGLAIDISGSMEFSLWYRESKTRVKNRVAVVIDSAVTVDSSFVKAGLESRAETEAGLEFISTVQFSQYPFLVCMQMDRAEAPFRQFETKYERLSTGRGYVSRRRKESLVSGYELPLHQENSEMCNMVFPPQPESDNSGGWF
Experiment: Inhibition of MTP activity: transfer of [3H]-triolein from donor liposomes to biotinylated LDL, SPA
Assay type: biochemical
Settings: MTP from golden hamster liver; incubation 18-24 hours at 37° C.; read-out: IC50, concentration that allows a 50% inhibition of MTP
Description: Analysis of the Inhibition of MTP Activity
The inhibition of the activity of microsomal triglyceride transfer protein (MTP) was tested by using the following operating protocol.
The inhibition of MTP activity with a compound can be quantified by observing the inhibition of the transfer of a labelled triglyceride, from a donor particle to an acceptor particle, in the presence of MTP. The procedure for the preparation of MTP is based on the method by Wetterau and Zilversmit (Biochem. Biophys. Acta (1986) 875, 610). A few grams of golden hamster liver are taken and then rinsed several times in a 250 mM sucrose solution at 0° C. All the following steps proceed at +4° C. A homogenate at a concentration of 50% in 250 mM sucrose is prepared using a Teflon mill and then centrifuged for 10 minutes at 10 000×g at +4° C. The supernatant is then centrifuged at 105 000×g for 75 minutes at +4° C. The supernatant is discarded and the microsomal pellet is taken up in 3 ml (per g of starting liver) of Tris/HCl 150 mM pH 8.0. 1-ml aliquot fractions are stored at −80° C. until the time of use.
After thawing a fraction of microsomes (1 ml), 12 ml of refrigerated Tris/HCl 50 mM, KCl 50 mM, MgCl2 5 mM pH 7.4 buffers and 1.2 ml of deoxycholate (0.54% in water) are added. After incubation for 30 minutes at +4° C. with gentle agitation, the suspension is centrifuged at 105 000×g for 75 minutes. The supernatant comprising the soluble MTP is dialysed against Tris/HCl 150 mM, NaCl 40 mM, EDTA 1 mM, 0.02% sodium azide pH 7.4 buffer (5 times one litre over 2-3 days). The MTP is stored at +4° C., is stable for at least 30 days and is used in unmodified form in the test.
The donor particles (liposomes) are prepared from 208 μl of L-phosphatidylcholine at a concentration of 10 mg/ml in chloroform, and 480 μl of [3H]-triolein at a concentration of 0.5 mCi/ml in toluene. After stirring, the solution is evaporated under nitrogen, taken up in 6 ml of Tris/HCl 50 mM, KCl 50 mM, MgCl2 5 mM pH 7.4 buffer and incubated in an ultrasound bath for 30 minutes at room temperature. The liposomes are stored at +4° C. and sonicated again for 10 minutes before each use.
The acceptor particles are biotinylated low density lipoproteins (LDL-biot). These particles are supplied by the company Amersham.
The reaction mixture is prepared in untreated ½ well white plates (Corning Costar) by addition, in the following order, of: 5 μl of HEPES 50 mM, NaCl 150 mM, BSA 0.1% (w/v), 0.05% sodium azide (w/v), pH 7.4 buffer; 5 μl of liposome; 5 μl of LDL-biot; 5 μl of test products in DMSO; 5 μl of MTP. After incubation for 18-24 hours at 37° C., the reaction is stopped by adding 100 μl of Amersham SPA (Scintillation Proximity Assay) beads coupled to streptavidin, and the radioactivity is counted using a Top Count (Packard) machine at least one hour later. The inhibition of the transfer of the triglycerides with a compound is reflected by a reduction in the transferred radioactivity.
The results are expressed in terms of the IC50, i.e. the concentration that allows a 50% inhibition of MTP.

Row | Compound | IC50 [nM]
1 | COCCOc1ccc(-c2ccccc2C(=O)Nc2cccc(OC3CCN(C(=O)OC(C)(C)C)CC3)c2)cc1 [Example 90, 1,1-dimethylethyl 4-[3-[[[4′-(2-methoxy-ethoxy)[1,1-biphenyl]-2-yl]carbonyl]-amino]phenoxy]-1-piperidinecarboxylate] | 392
2 | C/C=C/C(=O)N1CCC(Oc2cccc(NC(=O)c3ccccc3-c3ccc(OC(F)(F)F)cc3)c2)CC1 [Example 137, N-[3-[[1-[(2E)-1-oxo-2-butenyl]-4-piperi-dinyl]oxy]phenyl]-4′-(trifluoromethoxy)-[1,1′-biphenyl]-2-carboxamide] | 209
3 | Cc1ccc(C(=O)N2CCC(Oc3cccc(NC(=O)c4ccccc4-c4ccc(OC(F)(F)F)cc4)c3)CC2)cc1 [Example 130, N-[3-[[1-(4-methylbenzoyl)-4-piperidinyl]-oxy]phenyl]-4′-(trifiuoromethoxy)[1,1′-biphenyl]-2-carboxamide] | 219
4 | Cc1ccc(NC(=O)N2CCC(Oc3cccc(NC(=O)c4cccc(C)c4-c4ccc(OC(F)(F)F)cc4)c3)CC2)cc1 [Example 29, N-(4-methylphenyl)-4-(3-[[[6-methyl-4′-(trifluoromethoxy)[1,1′-biphenyl]-2-yl]-carbonyl]amino]phenoxy]-1-piperidine-carboxamide] | 268
5 | O=C(Nc1cccc(OC2CCN(C(=O)c3ccccc3)CC2)c1)c1ccccc1-c1ccc(OC(F)(F)F)cc1 [Example 119, N-[3-[(1-benzoyl-4-piperidinyl)oxy]phenyl]-4′-(trifluoromethoxy)[1,1′-biphenyl]-2-carboxamide] | 661
6 | COC(=O)CC(=O)N1CCC(Oc2cccc(NC(=O)c3ccccc3-c3ccc(OC(F)(F)F)cc3)c2)CC1 [Example 125, methyl β-oxo-4-[3-[[[4′-(trifluoromethoxy)-[1,1′-biphenyl]-2-yl]carbonyl]amino]-phenoxy]-1-piperidinepropanoate] | 252
7 | CC(=O)N1CCC(Oc2cccc(NC(=O)c3cccc(C)c3-c3ccc(OC(F)(F)F)cc3)c2)CC1 [Example 4, N-[3-[(1-acetyl-4-piperidinyl)oxy]phenyl]-6-methyl-4′-(trifluoromethoxy)[1,1′-biphenyl]-2-carboxamide] | 344
8 | Cc1cccc(C(=O)Nc2cccc(OC3CCN(Cc4cccnc4)CC3)c2)c1-c1ccc(OC(F)(F)F)cc1 [Example 81, 6-methyl-N-[3-[[1-(3-pyridinylmethyl)-4-piperidinyl]oxy]phenyl]-4′-(trifluorometh-oxy)[1,1′-biphenyl]-2-carboxamide] | 315
9 | COc1cc(NC(=O)N2CCC(Oc3cccc(NC(=O)c4cccc(C)c4-c4ccc(OC(F)(F)F)cc4)c3)CC2)cc(OC)c1OC [Example 38, 4-[3-[[[6-methyl-4′-(trifluoromethoxy)[1,1′-biphenyl]-2-yl]carbonyl]amino]phenoxy]-N-(3,4,5-trimethoxyphenyl)-1-piperidine-carboxamide] | 422
10 | CSc1ccc(NC(=O)N2CCC(Oc3cccc(NC(=O)c4cccc(C)c4-c4ccc(OC(F)(F)F)cc4)c3)CC2)cc1 [Example 39, N-[4-(methylthio)phenyl]-4-[3-[[[6-methyl-4′-(trifluoromethoxy)[1,1′-biphenyl]-2-yl]-carbonyl]amino]phenoxy]-1-piperidine-carboxamide] | 85.7
11 | COC(=O)[C@@H](NC(=O)N1CCC(Oc2cccc(NC(=O)c3cccc(C)c3-c3ccc(OC(F)(F)F)cc3)c2)CC1)C(C)C [Example 49, methyl N-[[4-[3-[[[6-methyl-4′-(trifluoro-methoxy)[1,1′-biphenyl]-2-yl]carbonyl]-amino]phenoxy]-1-piperidinyl]carbonyl]-L-valinate] | 551
12 | Cc1cccc(C(=O)Nc2cccc(OC3CCN(C(=O)Nc4cccc(C#N)c4)CC3)c2)c1-c1ccc(OC(F)(F)F)cc1 [Example 37, N-(3-cyanophenyl)-4-[3-[[[6-methyl-4′-(trifluoromethoxy)[1,1′-biphenyl]-2-yl]-carbonyl]amino]phenoxy]-1-piperidine-carboxamide] | 65.2
13 | Cc1cccc(C(=O)Nc2cccc(OC3CCN(S(=O)(=O)c4cccc5nonc45)CC3)c2)c1-c1ccc(OC(F)(F)F)cc1 [Example 20, N-[3-[[1-(2,1,3-benzoxadiazol-4-yl-sulfonyl)-4-piperidinyl]oxy]phenyl]-6-methyl-4′-(trifluoromethoxy)[1,1′-biphenyl]-2-carboxamide] | 392
14 | Cc1cccc(C(=O)Nc2cccc(OC3CCN(C(=O)Nc4ccc(F)cc4)CC3)c2)c1-c1ccc(OC(F)(F)F)cc1 [Example 25, N-(4-fluorophenyl)-4-[3-[[[6-methyl-4′-(trifluoromethoxy)[1,1′-biphenyl]-2-yl]-carbonyl]amino]phenoxy]-1-piperidine-carboxamide] | 367
15 | Cc1cccc(C(=O)Nc2cccc(OC3CCN(C(=O)c4ccc([N+](=O)[O-])cc4)CC3)c2)c1-c1ccc(OC(F)(F)F)cc1 [Example 114, 6-methyl-N-[3-[[1-(4-nitrobenzoyl)-4-piperidinyl]oxy]phenyl]-4′-(trifluorometh-oxy)[1,1′-biphenyl]-2-carboxamide] | 202
16 | CCOC(=O)CCC(=O)N1CCC(Oc2cccc(NC(=O)c3ccccc3-c3ccc(OC(F)(F)F)cc3)c2)CC1 [Example 139, ethyl γ-oxo-4-[3-[[[4′-(trifluoromethoxy)-[1,1′-biphenyl]-2-yl]carbonyl]amino]-phenoxy]-1-piperidinebutanoate] | 309
17 | COc1cccc(NC(=O)N2CCC(Oc3cccc(NC(=O)c4cccc(C)c4-c4ccc(OC(F)(F)F)cc4)c3)CC2)c1 [Example 23, N-(3-methoxyphenyl)-4-[3-[[[6-methyl-4′-(trifluoromethoxy)[1,1′-biphenyl]-2-yl]-carbonyl]amino]phenoxy]-1-piperidine-carboxamide] | 261
18 | Cc1cccc(C(=O)Nc2cccc(OC3CCN(C(=O)Nc4cccc(C(F)(F)F)c4)CC3)c2)c1-c1ccc(OC(F)(F)F)cc1 [Example 24, 4-[3-[[[6-methyl-4-(trifluoromethoxy)[1,1′-4-biphenyl]-2-yl]carbonyl]amino]phenoxy]-N-[3-(trifluoromethyl)phenyl]-1-piperidine-carboxamide] | 459
19 | CCOC(=O)CCCCCNC(=O)N1CCC(Oc2cccc(NC(=O)c3cccc(C)c3-c3ccc(OC(F)(F)F)cc3)c2)CC1 [Example 45, ethyl 6-[[[4-[3-[[[6-methyl-4′-(trifluorometh-oxy)[1,1′-biphenyl]-2-yl]carbonyl]amino]-phenoxy]-1-piperidinyl]carbonyl]amino]-hexanoate] | 779
